This note sets out measurements from PubChem BioAssay AID1259407 (Chemical Carcinogenesis Research Information System (CCRIS), 2018).

The subject of the series is CCRIS mutagenicity, Ames/micronucleus/aberration tests. As to the kind of experiment: CCRIS mutagenicity studies.
Where [1] appears, read: Test System: AMES SALMONELLA TYPHIMURIUM, Strain/Indicator: TA98, Metabolic Activation: NONE, Method: STANDARD PLATE.
Setting [2] is: Test System: AMES SALMONELLA TYPHIMURIUM, Strain/Indicator: TA98, Metabolic Activation: RAT, LIVER, S-9, AROCLOR 1254, Method: STANDARD PLATE.
[3] abbreviates: Test System: AMES SALMONELLA TYPHIMURIUM, Strain/Indicator: TA1535, Metabolic Activation: NONE, Method: STANDARD PLATE.
The mark [4] stands for this setting: Test System: AMES SALMONELLA TYPHIMURIUM, Strain/Indicator: TA1535, Metabolic Activation: RAT, LIVER, S-9, AROCLOR 1254, Method: STANDARD PLATE.
The mark [5] stands for this setting: Test System: AMES SALMONELLA TYPHIMURIUM, Strain/Indicator: TA1537, Metabolic Activation: NONE, Method: STANDARD PLATE.
Setting [6] is: Test System: AMES SALMONELLA TYPHIMURIUM, Strain/Indicator: TA1537, Metabolic Activation: RAT, LIVER, S-9, AROCLOR 1254, Method: STANDARD PLATE.
The mark [7] stands for this setting: Test System: AMES SALMONELLA TYPHIMURIUM, Strain/Indicator: TA1538, Metabolic Activation: NONE, Method: STANDARD PLATE.
Where [8] appears, read: Test System: AMES SALMONELLA TYPHIMURIUM, Strain/Indicator: TA1538, Metabolic Activation: RAT, LIVER, S-9, AROCLOR 1254, Method: STANDARD PLATE.
The mark [9] stands for this setting: Test System: AMES SALMONELLA TYPHIMURIUM, Strain/Indicator: TA1978, Metabolic Activation: NONE, Method: STANDARD PLATE.
Setting [10] is: Test System: AMES SALMONELLA TYPHIMURIUM, Strain/Indicator: TA1978, Metabolic Activation: RAT, LIVER, S-9, AROCLOR 1254, Method: STANDARD PLATE.
The mark [11] stands for this setting: Test System: AMES SALMONELLA TYPHIMURIUM, Strain/Indicator: TA100, Metabolic Activation: NONE, Method: STANDARD PLATE.

The source made the active and inactive calls. The rule behind the calls is not given here.

`Nc1ccc(O)c2c1C(=O)c1c(O)ccc(N)c1C2=O`: the mutagenic call runs as follows: under setting [1], “active; positive”; under setting [2], “active; positive”; under setting [3], “inactive; negative”; under setting [4], “inactive; negative”; under setting [5], “active; positive”; under setting [6], “active; positive”. Further, the mutagenic call reads like this: under setting [7], “active; positive”; under setting [8], “active; positive”; under setting [9], “inactive; negative”; under setting [10], “inactive; negative”.
As to `O=S(=O)(c1ccc(O)cc1)c1ccc(O)cc1`, the mutagenic call reads like this: (Test System: AMES SALMONELLA TYPHIMURIUM, Strain/Indicator: TA98, Metabolic Activation: HAMSTER, LIVER, S-9, AROCLOR 1254 (10%), Method: STANDARD PLATE) “inactive; negative”; (Test System: AMES SALMONELLA TYPHIMURIUM, Strain/Indicator: TA98, Metabolic Activation: NONE, Method: PREINCUBATION) “inactive; negative”; under setting [1], “inactive; negative”; (Test System: AMES SALMONELLA TYPHIMURIUM, Strain/Indicator: TA98, Metabolic Activation: RAT LIVER S-9, PHENOBARBITAL AND BETA-NAPHTHOFLAVONE, Method: PREINCUBATION) “inactive; negative”; (Test System: AMES SALMONELLA TYPHIMURIUM, Strain/Indicator: TA98, Metabolic Activation: RAT, LIVER, S-9, AROCLOR 1254 (10%), Method: STANDARD PLATE) “inactive; negative”; (Test System: AMES SALMONELLA TYPHIMURIUM, Strain/Indicator: TA100, Metabolic Activation: HAMSTER, LIVER, S-9, AROCLOR 1254 (10%), Method: STANDARD PLATE) “inactive; negative”. The mutagenic call was “inactive; negative” (Test System: AMES SALMONELLA TYPHIMURIUM, Strain/Indicator: TA100, Metabolic Activation: NONE, Method: PREINCUBATION); “inactive; negative” under setting [11]; “inactive; negative” (Test System: AMES SALMONELLA TYPHIMURIUM, Strain/Indicator: TA100, Metabolic Activation: RAT LIVER S-9, PHENOBARBITAL AND BETA-NAPHTHOFLAVONE, Method: PREINCUBATION); “inactive; negative” (Test System: AMES SALMONELLA TYPHIMURIUM, Strain/Indicator: TA100, Metabolic Activation: RAT, LIVER, S-9, AROCLOR 1254 (10%), Method: STANDARD PLATE); “inactive; negative” (Test System: AMES SALMONELLA TYPHIMURIUM, Strain/Indicator: TA1535, Metabolic Activation: HAMSTER, LIVER, S-9, AROCLOR 1254 (10%), Method: STANDARD PLATE); “inactive; negative” (Test System: AMES SALMONELLA TYPHIMURIUM, Strain/Indicator: TA1535, Metabolic Activation: NONE, Method: PREINCUBATION). The mutagenic call by setting is: under setting [3], “inactive; negative”; (Test System: AMES SALMONELLA TYPHIMURIUM, Strain/Indicator: TA1535, Metabolic Activation: RAT LIVER S-9, PHENOBARBITAL AND BETA-NAPHTHOFLAVONE, Method: PREINCUBATION) “inactive; negative”; (Test System: AMES SALMONELLA TYPHIMURIUM, Strain/Indicator: TA1535, Metabolic Activation: RAT, LIVER, S-9, AROCLOR 1254 (10%), Method: STANDARD PLATE) “inactive; negative”; (Test System: AMES SALMONELLA TYPHIMURIUM, Strain/Indicator: TA1537, Metabolic Activation: HAMSTER, LIVER, S-9, AROCLOR 1254 (10%), Method: STANDARD PLATE) “inactive; negative”; (Test System: AMES SALMONELLA TYPHIMURIUM, Strain/Indicator: TA1537, Metabolic Activation: NONE, Method: PREINCUBATION) “inactive; negative”; under setting [5], “inactive; negative”. The mutagenic call was “inactive; negative” (Test System: AMES SALMONELLA TYPHIMURIUM, Strain/Indicator: TA1537, Metabolic Activation: RAT LIVER S-9, PHENOBARBITAL AND BETA-NAPHTHOFLAVONE, Method: PREINCUBATION); “inactive; negative” (Test System: AMES SALMONELLA TYPHIMURIUM, Strain/Indicator: TA1537, Metabolic Activation: RAT, LIVER, S-9, AROCLOR 1254 (10%), Method: STANDARD PLATE); “inactive; negative” (Test System: AMES SALMONELLA TYPHIMURIUM, Strain/Indicator: TA1538, Metabolic Activation: HAMSTER, LIVER, S-9, AROCLOR 1254 (10%), Method: STANDARD PLATE); “inactive; negative” under setting [7]; “inactive; negative” (Test System: AMES SALMONELLA TYPHIMURIUM, Strain/Indicator: TA1538, Metabolic Activation: RAT, LIVER, S-9, AROCLOR 1254 (10%), Method: STANDARD PLATE); “inactive; negative” (Test System: E. COLI, Strain/Indicator: WP2UVRA, Metabolic Activation: NONE, Method: PREINCUBATION). In addition, the mutagenic call was “inactive; negative” (Test System: E. COLI, Strain/Indicator: WP2UVRA, Metabolic Activation: RAT LIVER S-9, PHENOBARBITAL AND BETA-NAPHTHOFLAVONE, Method: PREINCUBATION); “inactive; positive. reevaluation of results: negative” (Test System: MOUSE LYMPHOMA, Strain/Indicator: L5178Y (TK+/TK-), Metabolic Activation: NONE, Method: SUSPENSION/PLATE); “inactive; negative” (Test System: MOUSE LYMPHOMA, Strain/Indicator: L5178Y (TK+/TK-), Metabolic Activation: RAT, LIVER, S-9, AROCLOR 1254, Method: SUSPENSION/PLATE).
Turning to `COO`, the mutagenic call by setting is: under setting [11], “inactive; negative”; (Test System: AMES SALMONELLA TYPHIMURIUM, Strain/Indicator: TA102, Metabolic Activation: NONE, Method: STANDARD PLATE) “active; positive”.
As to `CC1(C)[C@H](/C=C(\Cl)C(F)(F)F)[C@@H]1C(=O)O[C@@H](C#N)c1cccc(Oc2ccccc2)c1`, the mutagenic call runs as follows: (End Point: IN VIVO CHROMOSOMAL ABERRATIONS, Test System: BONE MARROW, Species: RAT, Strain/Sex: WISTAR/FEMALE, Route: IP) “active; positive (structural changes)”; (End Point: IN VIVO MICRONUCLEUS, Test System: BONE MARROW POLYCHROMATIC ERYTHROCYTES, Species: RAT, Strain/Sex: WISTAR/FEMALE, Route: ORAL (GAVAGE)) “active; positive”; (End Point: IN VIVO MICRONUCLEUS, Test System: BONE MARROW, Species: RAT, Strain/Sex: WISTAR/FEMALE, Route: IP) “active; positive”; (End Point: IN VIVO MICRONUCLEUS, Test System: POLYCHROMATIC ERYTHROCYTES FROM COLONIC CRYPT EPITHELIAL CELLS, Species: RAT, Strain/Sex: WISTAR/FEMALE, Route: ORAL (GAVAGE)) “active; positive”.
For the molecule `Cc1cc(-c2ccccc2)cc(C)c1N`, the mutagenic call was “inactive; negative” under setting [1]; “active; positive” (Test System: AMES SALMONELLA TYPHIMURIUM, Strain/Indicator: TA98, Metabolic Activation: RAT LIVER S-9, AROCLOR, Method: STANDARD PLATE); “inactive; negative” under setting [11]; “active; positive” (Test System: AMES SALMONELLA TYPHIMURIUM, Strain/Indicator: TA100, Metabolic Activation: RAT LIVER S-9, AROCLOR, Method: STANDARD PLATE).
For the molecule `O=C1c2ccccc2C(=O)c2c1cc(O)c(O)c2O`, the mutagenic call reads like this: under setting [1], “active; positive”; under setting [2], “active; positive”; under setting [3], “inactive; negative”; under setting [4], “inactive; negative”; under setting [5], “active; positive”; under setting [6], “active; positive”. Also, the mutagenic call runs as follows: under setting [7], “active; positive”; under setting [8], “active; positive”; under setting [9], “inactive; negative”; under setting [10], “inactive; negative”.
